Where two headings read alike, the source gives them in different places. Non-standard residues stand in square brackets, D forms with d. Residues, ends and D or L forms follow the SMILES beside them. NMeF = CN[C@@H](Cc1ccccc1)C(=O)O; dNMeF = CN[C@H](Cc1ccccc1)C(=O)O; NMeA = CN[C@@H](C)C(=O)O; Sar = CNCC(=O)O
Experiments:
[1] = test system: Lolium multiflorum (Ryegrass) seeds; assay: whole plant or invertebrate; format: in vivo; details: agar germination; for Radicle growth inhibition (%): 67 µg/mL, 20 °C, evaluated after 12 days, three replicates of ten seeds, relative to DMSO negative control
Description: The herbicidal activity of cyclotetrapeptides 16–25, 27 and the linear precursors 4–8, 10, 12–15 were evaluated for their influence on germination, leaf development and radicle length growth of ryegrass seeds at 67 μg/mL using germination in agar methodology. DMSO was used as negative control and the herbicide S-metolachlor as positive control. […] The results were expressed as % of radicle growth inhibition, calculated as the percentage between the treatment with each compound and radicle length growth for the negative control (DMSO), as shown in Figure 3.
The experiments to determine the herbicidal activity of the cyclopeptide compounds were carried out on Lolium multiflorum (Raygrass) plants. Germination, root length and leaf development were evaluated, compared to a control without herbicide, a negative control (100 μL DMSO in 15 mL agar, used as solvent) and an herbicide control (1/8 of the commercial dose of the herbicide S-metolachlor).
Serial experiments were conducted using the Agar germination methodology, where the tested compounds and the respective controls were placed in glass Petri dishes (6 cm diameter) in three replicates per treatment. Ten ryegrass seeds were germinated in a growth chamber (20 °C, day/night temperature). The seeds were previously sterilized by immersing them in 70% alcohol for 10 s. When distributed in the Petri dish on the agar, the seeds were placed in such a way as to ensure that they remained submerged in the solution.
Agar–water solution was prepared at 0.3%, 3 g of agar was placed in 1 liter of deionized water, and the solution was autoclaved at 100 °C for 45 min. Once the agar medium had cooled to approximately 60 °C, the solutions were prepared.
The negative control–DMSO control was prepared by adding 100 μL of DMSO per plate in 15 mL of agar and then the seeds were distributed, as mentioned above. A control without DMSO was also carried out to check that the product was not altering the correct development of the ryegrass seeds. For this test, 15 ml of agar were placed in each Petri dish and, before it solidified, the seeds of the species evaluated were placed on top. The herbicide treatment, positive control–Control S-Metolachlor (960 g/L), was carried out for a conversion of 1/8 of the dose of 1 L/ha of commercial product. For this purpose, a stock solution of S-Metolachlor was prepared by placing 0.28 mL of the herbicide in a volumetric flask and topping up to 1000 mL. A total of 25 mL of this stock solution were taken, placed in a volumetric flask and brought to 200 mL, thus, generating the 1/8x solution of S-Metolachlor. A volume of 3 mL of 1/8x herbicide solution was mixed with 45 mL of the agar solution to bring 16 mL into each Petri dish. This ensured that there was 1 mL of 1/8x S-Metolachlor solution per plate: 0.28 μL of herbicide solution. Seeds were arranged in the same way. Using the same method, the agar media corresponding to each plate (15 mL) was mixed with the cyclopeptides dissolved in 100 μL of DMSO.
Germination, root length and leaf development were evaluated 12 days after preparation. The variables of germinated plants and plants with developed leaves of the total number of plants placed to germinate were analyzed by fitting a generalized linear model, since they presented a binomial distribution.
Glinmix procedure of the SAS statistical package. Based on the model and for the comparison of the treatments with the different controls, the contrasts of interest were carried out. The effect of the treatments on the root length variable was studied by comparing means using a Tukey test (p-value < 0.05) in INFOSTAT.
5. Procedure for evaluation of phytotoxic activity
Experiments for determining the herbicidal activity of cyclopeptide compounds were carried out on Lolium multiflorum (Ray grass) plants. Germination, root length, and leaf development were evaluated compared to a control without herbicide, a negative […]

[2] = test system: Lolium multiflorum (Ryegrass) seeds; format: in vivo; details: agar germination
[3] = amide bond, 12-membered ring
[4] = test system: Lolium multiflorum (Ryegrass) seeds; details: 67 μg/mL; cited from earlier work
[5] = test system: cyanobacteria; details: cited from earlier work
[6] = test system: HepG2 cells; details: cited from earlier work
[7] = 11 µM, 12 days, relative to DMSO control
[8] = 6 µM, 12 days, relative to DMSO control

CC(C)C[C@H](NC(=O)[C@H](C)N)C(=O)N[C@@H](Cc1ccccc1)C(=O)N(C)CC(=O)O [Compound 6, NH2-Ala-Leu-Phe-NMeGly-OH] (H-ALF[Sar]-OH)
Radicle growth inhibition (%) [1]: 92% and greater than 85%

CC(C)C[C@H](NC(=O)[C@H](C)N)C(=O)N(C)[C@H](Cc1ccccc1)C(=O)NCC(=O)O [Compound 7, NH2-Ala-Leu-N-Me-D-Phe-Gly-OH] (H-AL[dNMeF]G-OH)
Radicle growth inhibition (%) [1]: 94% and greater than 85% | Radicle growth inhibition (%) [2, 7]: 48%

CC(C)C[C@H](NC(=O)[C@H](C)N)C(=O)N(C)[C@@H](Cc1ccccc1)C(=O)N(C)CC(=O)O [Compound 10, NH2-Ala-Leu-N-MePhe-N-MeGly-OH] (H-AL[NMeF][Sar]-OH)
Radicle growth inhibition (%) [1]: greater than 85% | Radicle growth inhibition (%) [2, 7]: 15%

CN[C@@H](C)C(=O)N[C@@H](Cc1ccccc1)C(=O)N(C)[C@@H](Cc1ccccc1)C(=O)NCC(=O)O [Compound 13, N-MeAla-Phe-N-MePhe-Gly-OH] (H-[NMeA]F[NMeF]G-OH)
Radicle growth inhibition (%) [1]: greater than 85% | Radicle growth inhibition (%) ([2]; 5 µM, 12 days, relative to DMSO control): 38%

CN[C@H](Cc1ccccc1)C(=O)N[C@@H](C)C(=O)N[C@@H](Cc1ccccc1)C(=O)N(C)CC(=O)O [Compound 14, N-Me-D-Phe-Ala-Phe-N-MeGly-OH] (H-[dNMeF]AF[Sar]-OH)
Radicle growth inhibition (%) ([2]; 67 µM as printed): 53%

CC(C)C[C@@H]1NC(=O)[C@H](C)NC(=O)CN(C)C(=O)[C@H](Cc2ccccc2)N(C)C1=O [Compound 22, Cyclo-[Ala-Leu-N-MePhe-N-MeGly]] (cyclo(AL[NMeF][Sar]))
Radicle growth inhibition (%) [1]: 66%

CC(C)C[C@@H]1NC(=O)[C@H](C)N(C)C(=O)CN(C)C(=O)[C@H](Cc2ccccc2)NC1=O [Compound 23, Cyclo-[N-MeAla-Leu-Phe-N-MeGly]] (cyclo([NMeA]LF[Sar]))
Radicle growth inhibition (%) [1]: 16%

CC(C)C[C@@H]1NC(=O)[C@H](C)N(C)C(=O)CNC(=O)[C@H](Cc2ccccc2)N(C)C1=O [Compound 24, Cyclo-[N-MeAla-Leu-N-MePhe-Gly]] (cyclo([NMeA]L[NMeF]G))
Radicle growth inhibition (%) [1]: 81% | Radicle growth inhibition (%) ([2]; 10 µM, 12 days, relative to DMSO control): 62%

C[C@H]1C(=O)N[C@@H](Cc2ccccc2)C(=O)N(C)[C@@H](Cc2ccccc2)C(=O)NCC(=O)N1C [Compound 25, Cyclo-[N-MeAla-Phe-N-MePhe-Gly]] (cyclo([NMeA]F[NMeF]G))
Radicle growth inhibition (%) [1]: 96% and greater than 85% | Radicle growth inhibition (%) ([2]; 4 µM, 12 days, relative to DMSO control): 41%

C[C@@H]1NC(=O)[C@@H](Cc2ccccc2)N(C)C(=O)CN(C)C(=O)[C@H](Cc2ccccc2)NC1=O [Compound 26, Cyclo-[N-Me-D-Phe-Ala-Phe-N-MeGly]] (cyclo([dNMeF]AF[Sar]))
Radicle growth inhibition (%) ([2]; 7 µM, 12 days, relative to DMSO control): 45% | Radicle growth inhibition (%) ([2]; 45 µg/mL, 12 days, relative to DMSO control): 67%

CC(C)C[C@@H]1NC(=O)[C@H](C)NC(=O)CN(C)C(=O)[C@@H](Cc2ccccc2)NC1=O [Cyclo [Ala-Leu-D-Phe-N-MeGly]]
ring closure, isolated yield ([3]; from H-Ala-Leu-dPhe-MeGly-OH): 76%

CC(C)C[C@@H]1NC(=O)[C@H](C)NC(=O)CNC(=O)[C@@H](Cc2ccccc2)NC1=O [Cyclo-[Ala-Leu-D-Phe-Gly]]
ring closure, isolated yield ([3]; from H-Ala-Leu-dPhe-Gly-OH): 5%

CC(C)C[C@@H]1NC(=O)[C@H](C)NC(=O)CNC(=O)[C@@H](Cc2ccccc2)N(C)C1=O [Cyclo-[Ala-Leu-N-Me-D-Phe-Gly]]
ring closure, isolated yield ([3]; from H-Ala-Leu-dMePhe-Gly-OH): 66%

CC(C)C[C@@H]1NC(=O)[C@H](C)NC(=O)CN(C)C(=O)[C@H](Cc2ccccc2)N(C)C1=O [Cyclo-[Ala-Leu-N-MePhe-N-MeGly]]
ring closure, isolated yield ([3]; from H-Ala-Leu-MePhe-MeGly-OH): 33%

CC(C)C[C@@H]1NC(=O)[C@H](C)NC(=O)CN(C)C(=O)[C@H](Cc2ccccc2)NC1=O [Cyclo-[Ala-Leu-Phe-N-MeGly]]
ring closure, isolated yield ([3]; from H-Ala-Leu-Phe-MeGly-OH): 40%

CC(C)C[C@@H]1NC(=O)[C@H](C)N(C)C(=O)CN(C)C(=O)[C@H](Cc2ccccc2)NC1=O [Cyclo-[N-MeAla-Leu-Phe-N-MeGly]]
ring closure, isolated yield ([3]; from H-MeAla-Leu-Phe-MeGly-OH): 38%

CCc1cccc(C)c1N(C(=O)CCl)[C@@H](C)COC [S-metolachlor, reference compound]
inhibition at 2.1 µg/mL ([1]; Lolium multiflorum, 288 h, positive control at 2.1 µg/mL (1/8 of the commercial dose), 12 days, read-out: Radicle growth inhibition (%)): 100%

Cyclo-[Ala-Leu-D-Phe-Gly] (head to tail) [Compound 16]
Radicle growth inhibition (%) [1]: inactive

Cyclo-[Ala-Leu-N-Me-D-Phe-Gly] (head to tail) [Compound 19]
Radicle growth inhibition (%) [1]: 87% and greater than 85% | Radicle growth inhibition (%) ([2]; 9 µM, 12 days, relative to DMSO control): 53%

Cyclo-[N-Me-D-Phe-Ala-Phe-N-MeGly]
ring closure, isolated yield [3]: 17%

Cyclo-[N-MeAla-Leu-D-Phe-Gly]
ring closure, isolated yield [3]: 67%

Cyclo-[N-MeAla-Leu-D-Phe-Gly] (head to tail) [Compound 20]
Radicle growth inhibition (%) [1]: 74% | Radicle growth inhibition (%) [2, 8]: 32%

Cyclo-[N-MeAla-Leu-N-MePhe-Gly]
ring closure, isolated yield [3]: 47%

Cyclo-[N-MeAla-Leu-Phe-Gly]
ring closure, isolated yield [3]: 48%

Cyclo-[N-MeAla-Leu-Phe-Gly] (head to tail) [Compound 17]
Radicle growth inhibition (%) [2, 8]: 10%

Cyclo-[N-MeAla-Phe-N-MePhe-Gly]
ring closure, isolated yield [3]: 86%

Cyclo-[Phe-N-MeGly-Cys(Bn)-N-MeGly]
ring closure, isolated yield [3]: 54%

versicotide D
radicle growth inhibition [4]: 74% | inhibition of cyanobacteria population [5]: ability to inhibit cyanobacteria population | cytotoxicity on HepG2 cells [6]: low cytotoxicity
